The values below come from ChEMBL document CHEMBL3751674, “Synthesis, antimicrobial activity of Schiff base compounds of cinnamaldehyde and amino acids” (2016).

Holding throughout (type): functional
What all share (conditions): read-out: DIZ

For test [1], the system named is Aspergillus niger. Kind of test: Antifungal activity against Aspergillus niger at 0.25 mol/L after 2 to 4 days by paper disc method.
Test [2] has as its system Aspergillus niger. Kind of test: Antifungal activity against Aspergillus niger at 0.13 mol/L after 2 to 4 days by paper disc method.
Test [3] concerns Aspergillus niger. Kind of test: Antifungal activity against Aspergillus niger at 0.06 mol/L after 2 to 4 days by paper disc method.
Test [4] relates to Aspergillus niger. Kind of test: Antifungal activity against Aspergillus niger at 0.03 mol/L after 2 to 4 days by paper disc method.
Test [5] has as its system Penicillium citrinum. In words: Antifungal activity against Penicillium citrinum at 0.25 mol/L after 2 to 4 days by paper disc method.
For test [6], the system named is Penicillium citrinum. Kind of test: Antifungal activity against Penicillium citrinum at 0.13 mol/L after 2 to 4 days by paper disc method.
In test [7] the test system is Penicillium citrinum. Kind of test: Antifungal activity against Penicillium citrinum at 0.06 mol/L after 2 to 4 days by paper disc method.
The subject of test [8] is Penicillium citrinum. Kind of test: Antifungal activity against Penicillium citrinum at 0.03 mol/L after 2 to 4 days by paper disc method.
Test [9] deals with Escherichia coli. Kind of test: Antibacterial activity against Escherichia coli at 0.25 mol/L after 12 to 24 hrs by paper disc method.
The subject of test [10] is Escherichia coli. Kind of test: Antibacterial activity against Escherichia coli at 0.13 mol/L after 12 to 24 hrs by paper disc method.
In test [11] the test system is Escherichia coli. Kind of test: Antibacterial activity against Escherichia coli at 0.06 mol/L after 12 to 24 hrs by paper disc method.
Test [12] relates to Escherichia coli. Kind of test: Antibacterial activity against Escherichia coli at 0.03 mol/L after 12 to 24 hrs by paper disc method.
The subject of test [13] is Staphylococcus aureus. In words: Antibacterial activity against Staphylococcus aureus at 0.25 mol/L after 12 to 24 hrs by paper disc method.
Test [14] concerns Staphylococcus aureus. Kind of test: Antibacterial activity against Staphylococcus aureus at 0.13 mol/L after 12 to 24 hrs by paper disc method.
The test system of test [15] is Staphylococcus aureus. Kind of test: Antibacterial activity against Staphylococcus aureus at 0.06 mol/L after 12 to 24 hrs by paper disc method.
In test [16] the test system is Staphylococcus aureus. In words: Antibacterial activity against Staphylococcus aureus at 0.03 mol/L after 12 to 24 hrs by paper disc method.

Turning to `O=C(O)CC[C@H](/N=C/C=C/c1ccc(Cl)cc1)C(=O)O`, the zone of inhibition at 250000 µM was 21 mm in the test with Aspergillus niger [1], 35 mm in the test with Penicillium citrinum [5], 18.3 mm with Escherichia coli [9] and 31 mm with Staphylococcus aureus [13]. Besides, the zone of inhibition at 130000 µM in the test on Aspergillus niger [2] was 23.3 mm; in the test on Penicillium citrinum [6], 23 mm; in the test with Escherichia coli [10], 17.3 mm; with Staphylococcus aureus [14], 20 mm. Also, the zone of inhibition at 60000 µM was determined as 17.3 mm in the test with Aspergillus niger [3], 18.7 mm with Penicillium citrinum [7], 12 mm in the test on Escherichia coli [11] and 10.5 mm with Staphylococcus aureus [15]. Also, the zone of inhibition at 30000 µM in the test on Aspergillus niger [4] was found to be 17.7 mm; in the test on Penicillium citrinum [8], 17 mm; in the test with Escherichia coli [12], 15.7 mm; in the test with Staphylococcus aureus [16], 8.3 mm.
With `CC(C)[C@H](/N=C/C=C/c1ccc(Cl)cc1)C(=O)O`, the zone of inhibition at 250000 µM with Aspergillus niger [1] was determined as 27.3 mm; with Penicillium citrinum [5], 33.5 mm; in the test with Escherichia coli [9], 20.5 mm; in the test on Staphylococcus aureus [13], 33 mm. For the same molecule, the zone of inhibition at 130000 µM in the test with Aspergillus niger [2] was found to be 24 mm; in the test on Penicillium citrinum [6], 31 mm; in the test with Escherichia coli [10], 15.3 mm; with Staphylococcus aureus [14], 15.3 mm. For the same molecule, the zone of inhibition at 60000 µM in the test on Aspergillus niger [3] worked out at 19 mm; in the test with Penicillium citrinum [7], 19.5 mm; in the test on Escherichia coli [11] it was 11 mm; in the test on Staphylococcus aureus [15], 13.5 mm. Further, the zone of inhibition at 30000 µM was 15.7 mm in the test on Aspergillus niger [4], 20.7 mm in the test with Penicillium citrinum [8], 12 mm in the test with Escherichia coli [12] and 11 mm in the test with Staphylococcus aureus [16].
Consider `O=C(O)C/N=C/C=C/c1ccc(Cl)cc1`, for which the zone of inhibition at 250000 µM with Aspergillus niger [1] was 23.7 mm; in the test with Penicillium citrinum [5], 25 mm; with Escherichia coli [9] it was 22.8 mm; with Staphylococcus aureus [13], 22.2 mm. Also, the zone of inhibition at 130000 µM in the test on Aspergillus niger [2] was found to be 23 mm; with Penicillium citrinum [6] it was 21.7 mm; with Escherichia coli [10], 18.2 mm; in the test with Staphylococcus aureus [14] it was 9.7 mm. Also, the zone of inhibition at 60000 µM with Aspergillus niger [3] turned out to be 21.7 mm; in the test with Penicillium citrinum [7] it was 20.3 mm; in the test on Escherichia coli [11], 21.7 mm; with Staphylococcus aureus [15], 8 mm. Besides, the zone of inhibition at 30000 µM is 12 mm in the test with Aspergillus niger [4], 16.3 mm with Penicillium citrinum [8], 19.3 mm with Escherichia coli [12] and 12.3 mm in the test with Staphylococcus aureus [16].
Consider `COc1ccc(/C=C/C=N/[C@@H](Cc2ccccc2)C(=O)O)cc1`, for which the zone of inhibition at 250000 µM was found to be 19 mm in the test with Aspergillus niger [1], 24.7 mm in the test with Penicillium citrinum [5], 12.3 mm with Escherichia coli [9] and 12 mm in the test on Staphylococcus aureus [13]. For the same molecule, the zone of inhibition at 130000 µM in the test on Aspergillus niger [2] came out at 13 mm; with Penicillium citrinum [6], 19.7 mm; in the test with Escherichia coli [10] it was 13.8 mm; in the test on Staphylococcus aureus [14], 8.3 mm. Besides, the zone of inhibition at 60000 µM in the test on Aspergillus niger [3] turned out to be 10.8 mm; in the test on Penicillium citrinum [7], 10.5 mm; in the test on Escherichia coli [11], 8 mm; in the test with Staphylococcus aureus [15] it was 8 mm. The zone of inhibition at 30000 µM in the test on Aspergillus niger [4] stood at 18.3 mm; with Penicillium citrinum [8], 14 mm; with Escherichia coli [12], 13.2 mm; in the test on Staphylococcus aureus [16], 8 mm.
Take `COc1ccc(/C=C/C=N/C(C)C(=O)O)cc1` (stereo not drawn): the zone of inhibition at 250000 µM in the test on Aspergillus niger [1] came to 15.8 mm; in the test with Penicillium citrinum [5] it was 17.7 mm; with Escherichia coli [9], 16.3 mm; with Staphylococcus aureus [13] it was 12.7 mm. Moreover, the zone of inhibition at 130000 µM in the test on Aspergillus niger [2] was 10.5 mm; in the test on Penicillium citrinum [6], 9.8 mm; in the test with Escherichia coli [10] it was 8 mm; in the test with Staphylococcus aureus [14], 8.7 mm. For the same molecule, the zone of inhibition at 60000 µM in the test on Aspergillus niger [3] is 12.7 mm; with Penicillium citrinum [7], 13.3 mm; in the test on Escherichia coli [11] it was 10 mm; in the test with Staphylococcus aureus [15], 8 mm. The zone of inhibition at 30000 µM amounted to 8 mm in the test on Aspergillus niger [4], 9 mm with Penicillium citrinum [8], 8 mm with Escherichia coli [12] and 8 mm in the test on Staphylococcus aureus [16].
Take `CC(/N=C/C=C/c1ccccc1)C(=O)O` (stereo not drawn): the zone of inhibition at 250000 µM in the test with Aspergillus niger [1] turned out to be 9.7 mm; with Penicillium citrinum [5], 8 mm; in the test with Escherichia coli [9], 11 mm; in the test with Staphylococcus aureus [13] it was 8 mm. Further, the zone of inhibition at 130000 µM with Aspergillus niger [2] came to 8.3 mm; in the test on Penicillium citrinum [6] it was 10.3 mm; with Escherichia coli [10] it was 8 mm; with Staphylococcus aureus [14], 8 mm. Also, the zone of inhibition at 60000 µM with Aspergillus niger [3] was determined as 8 mm; in the test on Penicillium citrinum [7] it was 9.3 mm; in the test on Escherichia coli [11], 8 mm; in the test on Staphylococcus aureus [15], 8 mm. Also, the zone of inhibition at 30000 µM worked out at 8 mm with Aspergillus niger [4], 12.3 mm with Penicillium citrinum [8], 8 mm in the test on Escherichia coli [12] and 8 mm in the test on Staphylococcus aureus [16].
`CC(C)[C@H](/N=C/C=C/c1ccccc1)C(=O)O`: the zone of inhibition at 250000 µM turned out to be 12.7 mm in the test with Aspergillus niger [1], 12.5 mm in the test with Penicillium citrinum [5], 9 mm in the test with Escherichia coli [9] and 8 mm in the test with Staphylococcus aureus [13]. For the same molecule, the zone of inhibition at 130000 µM with Aspergillus niger [2] was 12.3 mm; in the test with Penicillium citrinum [6] it was 9.7 mm; in the test with Escherichia coli [10], 8 mm; in the test with Staphylococcus aureus [14] it was 8 mm. Besides, the zone of inhibition at 60000 µM in the test on Aspergillus niger [3] came out at 13 mm; in the test with Penicillium citrinum [7], 8 mm; with Escherichia coli [11] it was 11 mm; with Staphylococcus aureus [15], 8 mm. Besides, the zone of inhibition at 30000 µM in the test on Aspergillus niger [4] amounted to 8 mm; in the test on Penicillium citrinum [8], 9 mm; in the test with Escherichia coli [12], 8 mm; with Staphylococcus aureus [16], 8 mm.
As for `CC(C)C[C@H](/N=C/C=C/c1ccccc1)C(=O)O`, the zone of inhibition at 250000 µM in the test on Aspergillus niger [1] was 16.3 mm; in the test on Penicillium citrinum [5], 10.5 mm; in the test on Escherichia coli [9] it was 10 mm; with Staphylococcus aureus [13], 8 mm. The zone of inhibition at 130000 µM in the test on Aspergillus niger [2] worked out at 9.8 mm; in the test on Penicillium citrinum [6], 9 mm; with Escherichia coli [10], 8.3 mm; in the test on Staphylococcus aureus [14], 8 mm. The zone of inhibition at 60000 µM was determined as 8 mm with Aspergillus niger [3], 9.3 mm with Penicillium citrinum [7], 8 mm in the test on Escherichia coli [11] and 8.2 mm in the test on Staphylococcus aureus [15]. In addition, the zone of inhibition at 30000 µM with Aspergillus niger [4] was 8 mm; with Penicillium citrinum [8], 8.5 mm; in the test with Escherichia coli [12], 8 mm; in the test on Staphylococcus aureus [16], 8 mm.
